Experimental data: patent US10633419B2, “Immunomodulators” (BRISTOL-MYERS SQUIBB COMPANY, priority 2014, dated 2020)
Positions of bridges follow the written chain, without caps; N, C: chain ends. Non-standard residues stand in square brackets, D forms with d. Residues, ends and D or L forms follow the SMILES beside them. Groups on a side chain read outwards from the residue. *: point of attachment. X17 = COCCOCCOCCOCCOCCOCCOCCOCCOCCOCCOCCOCCOCCOCCOCCOCCOCCOCCOCCOCCOCCOCCOCCOCCOCCOCCOCCOCCOCCOCCOCCOCCOCCOCCOCCOCCOCCOCCOCCOCCOCCOCCOCCOCCOCCOCCOCCOCCOCCC(=O)*; CH3O(CH2CH2O)11CH2CH2CO = COCCOCCOCCOCCOCCOCCOCCOCCOCCOCCOCCOCCC(=O)*; Phe(3,4,5-F3) = N[C@@H](Cc1cc(F)c(F)c(F)c1)C(=O)O; d(cisHyp) = O=C(O)[C@H]1C[C@@H](O)CN1; Stearoyl = CCCCCCCCCCCCCCCCCC(=O)*; Hyp = O=C(O)[C@@H]1C[C@@H](O)CN1; NMeF = CN[C@@H](Cc1ccccc1)C(=O)O; X30 = O=C1NC2CSC(CCCCC(=O)*)C2N1; NMeE = CN[C@@H](CCC(=O)O)C(=O)O; Undecanoyl = CCCCCCCCCCC(=O)*; NMeNle = CCCC[C@H](NC)C(=O)O; PEG4 = NCCOCCOCCOCCOCCC(=O)O; dPip = O=C(O)[C@H]1CCCCN1; NMeA = CN[C@@H](C)C(=O)O; Dab = NCC[C@H](N)C(=O)O; Sar = CNCC(=O)O

What follows are molecules tested against T1, PD-L1 (Homo sapiens, UniProt Q9NZQ7) (assay: PD-1/PD-L1 Homogenous Time-Resolved Fluorescence (HTRF) binding assay (PD-1-Ig/PD-L1-His)). Conditions: inhibition of PD-1-Ig binding to PD-L1-TVMV-His; value given as number; read-out: HTRF IC50.
T1 construct: hPDL1(19-239)-TVMV-His; made in house; host or cells: HEK293T
Text: The ability of the macrocyclic peptides of the present disclosure to bind to PD-L1 was investigated using a PD-1/PD-L1 Homogenous Time-Resolved Fluorescence (HTRF) binding assay.
Homogenous Time-Resolved Fluorescence (HTRF) Assays of Binding of Soluble PD-1 to Soluble PD-L1. Soluble PD-1 and soluble PD-L1 refers to proteins with carboxyl-end truncations that remove the transmembrane-spanning regions and are fused to heterologous sequences, specifically the Fc portion of the human immunoglobuling G sequence (Ig) or the hexahistidine epitope tag (His). All binding studies were performed in an HTRF assay buffer consisting of dPBS supplemented with 0.1% (w/v) bovine serum albumin and 0.05% (v/v) Tween-20. For the PD-1-Ig/PD-L1-His binding assay, inhibitors were pre-incubated with PD-L1-His (10 nM final) for 15 m in 4 μl of assay buffer, followed by addition of PD-1-Ig (20 nM final) in 1 μl of assay buffer and further incubation for 15m. PD-L1 fusion proteins from either human, cynomologous macaques, mouse, or other species were used. HTRF detection was achieved using europium crypate-labeled anti-Ig monoclonal antibody (1 nM final) and allophycocyanin (APC) labeled anti-His monoclonal antibody (20 nM final). Antibodies were diluted in HTRF detection buffer and 5 μl was dispensed on top of binding reaction. The reaction was allowed to equilibrate for 30 minutes and signal (665 nm/620 nm ratio) was obtained using an EnVision fluorometer. Additional binding assays were established between PD-1-Ig/PD-L2-His (20 and 5 nM, respectively), CD80-His/PD-L1-Ig (100 and 10 nM, respectively) and CD80-His/CTLA4-Ig (10 and 5 nM, respectively). Binding/competition studies between biotinylated Compound No. 71 and human PD-L1-His were performed as follows. Macrocyclic peptide inhibitors were pre-incubated with PD-L1-His (10 nM final) for 60 minutes in 4 μl of assay buffer followed by addition of biotinylated Compound No. 71 (0.5 nM final) in 1 μl of assay buffer. Binding was allowed to equilibrate for 30 minutes followed by addition of europium crypated labeled Streptavidin (2.5 pM final) and APC-labeled anti-His (20 nM final) in 5 μl of HTRF buffer. The reaction was allowed to equilibrate for 30m and signal (665 nm/620 nm ratio) was obtained using an EnVision fluorometer.
Recombinant Proteins. Carboxyl-truncated human PD-1 (amino acids 25-167) with a C-terminal human Ig epitope tag [hPD-1 (25-167)-3S-IG] and human PD-L1 (amino acids 18-239) with a C-terminal His epitope tag [hPD-L1(19-239)-tobacco vein mottling virus protease cleavage site (TVMV)-His] were expressed in HEK293T cells and purified sequentially by recombinant Protein A affinity chromatography and size exclusion chromatography. Human PD-L2-His (Sino Biologicals), CD80-His (Sino Biologicals), CTLA4-Ig (RnD Systems) were all obtained through commercial sources.

T1 sequence (Q9NZQ7 with tags, fused parts or gaps): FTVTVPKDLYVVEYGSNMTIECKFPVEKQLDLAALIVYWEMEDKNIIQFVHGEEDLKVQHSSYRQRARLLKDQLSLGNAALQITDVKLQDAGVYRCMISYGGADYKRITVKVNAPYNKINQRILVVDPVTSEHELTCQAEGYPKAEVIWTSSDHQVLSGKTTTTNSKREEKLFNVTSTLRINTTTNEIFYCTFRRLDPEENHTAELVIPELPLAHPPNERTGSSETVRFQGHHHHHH

IC50 | SMILES
6.3 nM | CCCC[C@H]1C(=O)N2C[C@H](O)C[C@@H]2C(=O)N[C@@H](CC(=O)O)C(=O)N[C@@H](C(C)C)C(=O)N(C)[C@@H](Cc2ccccc2)C(=O)N[C@@H](Cc2ccc(O)cc2)C(=O)N2CCCC[C@@H]2C(=O)N[C@@H](Cc2c[nH]c3ccccc23)C(=O)N[C@@H](Cc2ccc(O)cc2)C(=O)N[C@@H](CC(C)C)C(=O)N[C@H](C(=O)NCC(=O)NCC(=O)NCC(=O)N[C@@H](CCCCNC(=O)CCOCCOCCOCCOCCOCCOCCOCCOCCOCCOCCOCCOCCOCCOCCOCCOCCOCCOCCOCCOCCOCCOCCOCCOCCOCCOCCOCCOCCOCCOCCOCCOCCOCCOCCOCCOCCOCCOCCOCCOCCOCCOCCOCCOCCOCCOCCOCCOCCOC)C(N)=O)CSCC(=O)N[C@@H](Cc2cc(F)c(F)c(F)c2)C(=O)N(C)[C@@H](Cc2ccccc2)C(=O)N1C [Example 3625] ({CH2CO}-[Phe(3,4,5-F3)][NMeF][NMeNle][d(cisHyp)]DV[NMeF]Y[dPip]WYLCGGGK(X17)-NH2; thioether N-13)
952 nM | CCCCCCCCCCCCCCCCCC(=O)NCCCC[C@H](NC(=O)[C@@H]1CSCC(=O)N[C@@H](Cc2ccc(O)cc2)C(=O)N(C)[C@@H](C)C(=O)N[C@@H](CC(N)=O)C(=O)N2CCC[C@H]2C(=O)N[C@@H](CCN)C(=O)N[C@@H](CC(C)C)C(=O)N2C[C@H](O)C[C@H]2C(=O)N[C@@H](Cc2c[nH]c3ccccc23)C(=O)N[C@@H](CO)C(=O)N[C@@H](Cc2c[nH]c3ccccc23)C(=O)N(C)[C@@H](CCCC)C(=O)N(C)[C@@H](CCCC)C(=O)N[C@@H](CCCNC(=N)N)C(=O)N1)C(N)=O [Example 11001] ({CH2CO}-Y[NMeA]NP[Dab]L[Hyp]WSW[NMeNle][NMeNle]RCK(Stearoyl)-NH2; thioether N-14)
54.6 nM | CCCCCCCCCCC(=O)NCCCC[C@H](NC(=O)[C@H](CC(=O)O)NC(=O)CNC(=O)CNC(=O)CNC(=O)[C@@H]1CSCC(=O)N[C@@H](Cc2ccc(O)cc2)C(=O)N(C)[C@@H](C)C(=O)N[C@@H](CC(N)=O)C(=O)N2CCC[C@H]2C(=O)N[C@@H](CCN)C(=O)N[C@@H](CC(C)C)C(=O)N2C[C@H](O)C[C@H]2C(=O)N[C@@H](Cc2c[nH]c3ccccc23)C(=O)N[C@@H](CO)C(=O)N[C@@H](Cc2c[nH]c3ccccc23)C(=O)N(C)[C@@H](CCCC)C(=O)N(C)[C@@H](CCCC)C(=O)N[C@@H](CCCNC(=N)N)C(=O)N1)C(N)=O [Example 11003] ({CH2CO}-Y[NMeA]NP[Dab]L[Hyp]WSW[NMeNle][NMeNle]RCGGGDK(Undecanoyl)-NH2; thioether N-14)

Same assay, conditions: inhibition of PD-1-Ig binding to PD-L1-TVMV-His; value given as range class; read-out: HTRF IC50

SMILES | IC50
CCCC[C@H]1C(=O)N2C[C@H](O)C[C@@H]2C(=O)N[C@@H](CC(=O)O)C(=O)N[C@@H](C(C)C)C(=O)N(C)[C@@H](Cc2ccccc2)C(=O)N[C@@H](Cc2ccc(O)cc2)C(=O)N(C)[C@@H](CCC(=O)O)C(=O)N[C@@H](Cc2c[nH]c3ccccc23)C(=O)N[C@@H](Cc2ccc(O)cc2)C(=O)N[C@@H](CC(C)C)C(=O)N[C@H](C(=O)NCC(=O)NCC(=O)NCC(=O)N[C@@H](CCCCN)C(N)=O)CSCC(=O)N[C@@H](Cc2cc(F)c(F)c(F)c2)C(=O)N(C)[C@@H](Cc2ccccc2)C(=O)N1C [Example 3214] ({CH2CO}-[Phe(3,4,5-F3)][NMeF][NMeNle][d(cisHyp)]DV[NMeF]Y[NMeE]WYLCGGGK-NH2; thioether N-13) | 0.3 to 9.9 nM
CCCC[C@H]1C(=O)N(C)CC(=O)N[C@@H](CC(=O)O)C(=O)N[C@@H](C(C)C)C(=O)N(C)[C@@H](Cc2ccccc2)C(=O)N[C@@H](Cc2ccc(O)cc2)C(=O)N(C)[C@@H](CCC(=O)O)C(=O)N[C@@H](Cc2c[nH]c3ccccc23)C(=O)N[C@@H](Cc2ccc(O)cc2)C(=O)N[C@@H](CC(C)C)C(=O)N[C@H](C(=O)NCC(=O)NCC(=O)NCC(=O)N[C@@H](CCCCN)C(N)=O)CSCC(=O)N[C@@H](Cc2ccccc2)C(=O)N(C)[C@@H](Cc2ccccc2)C(=O)N1C [Example 3619] ({CH2CO}-F[NMeF][NMeNle][Sar]DV[NMeF]Y[NMeE]WYLCGGGK-NH2; thioether N-13) | 0.3 to 9.9 nM
CCCC[C@H]1C(=O)N(C)CC(=O)N[C@@H](CC(=O)O)C(=O)N[C@@H](C(C)C)C(=O)N(C)[C@@H](Cc2ccccc2)C(=O)N[C@@H](Cc2ccc(O)cc2)C(=O)N(C)[C@@H](CCC(=O)O)C(=O)N[C@@H](Cc2c[nH]c3ccccc23)C(=O)N[C@@H](Cc2ccc(O)cc2)C(=O)N[C@@H](CC(C)C)C(=O)N[C@H](C(=O)NCC(=O)NCC(=O)NCC(=O)N[C@@H](CCCCNC(=O)CCOCCOCCOCCOCCOCCOCCOCCOCCOCCOCCOCCOC)C(N)=O)CSCC(=O)N[C@@H](Cc2ccccc2)C(=O)N(C)[C@@H](Cc2ccccc2)C(=O)N1C [Example 3621] ({CH2CO}-F[NMeF][NMeNle][Sar]DV[NMeF]Y[NMeE]WYLCGGGK(CH3O(CH2CH2O)11CH2CH2CO)-NH2; thioether N-13) | 10 to 99 nM
CCCC[C@H]1C(=O)N2C[C@H](O)C[C@@H]2C(=O)N[C@@H](CC(=O)O)C(=O)N[C@@H](C(C)C)C(=O)N(C)[C@@H](Cc2ccccc2)C(=O)N[C@@H](Cc2ccc(O)cc2)C(=O)N2CCCC[C@@H]2C(=O)N[C@@H](Cc2c[nH]c3ccccc23)C(=O)N[C@@H](Cc2ccc(O)cc2)C(=O)N[C@@H](CC(C)C)C(=O)N[C@H](C(=O)NCC(=O)NCC(=O)NCC(=O)N[C@@H](CCCCN)C(N)=O)CSCC(=O)N[C@@H](Cc2cc(F)c(F)c(F)c2)C(=O)N(C)[C@@H](Cc2ccccc2)C(=O)N1C [Example 3623] ({CH2CO}-[Phe(3,4,5-F3)][NMeF][NMeNle][d(cisHyp)]DV[NMeF]Y[dPip]WYLCGGGK-NH2; thioether N-13) | 0.3 to 9.9 nM
CCCC[C@H]1C(=O)N2C[C@H](O)C[C@@H]2C(=O)N[C@@H](CC(=O)O)C(=O)N[C@@H](C(C)C)C(=O)N(C)[C@@H](Cc2ccccc2)C(=O)N[C@@H](Cc2ccc(O)cc2)C(=O)N2CCCC[C@@H]2C(=O)N[C@@H](Cc2c[nH]c3ccccc23)C(=O)N[C@@H](Cc2ccc(O)cc2)C(=O)N[C@@H](CC(C)C)C(=O)N[C@H](C(=O)NCC(=O)NCC(=O)NCC(=O)N[C@@H](CCCCNC(=O)CCOCCOCCOCCOCCOCCOCCOCCOCCOCCOCCOCCOC)C(N)=O)CSCC(=O)N[C@@H](Cc2cc(F)c(F)c(F)c2)C(=O)N(C)[C@@H](Cc2ccccc2)C(=O)N1C [Example 3624] ({CH2CO}-[Phe(3,4,5-F3)][NMeF][NMeNle][d(cisHyp)]DV[NMeF]Y[dPip]WYLCGGGK(CH3O(CH2CH2O)11CH2CH2CO)-NH2; thioether N-13) | 0.3 to 9.9 nM

The next lines start with the values.

IC50 | SMILES
0.3 to 9.9 nM | CCCC[C@H]1C(=O)N2C[C@H](O)C[C@@H]2C(=O)N[C@@H](CC(=O)O)C(=O)N[C@@H](C(C)C)C(=O)N(C)[C@@H](Cc2ccccc2)C(=O)N[C@@H](Cc2ccc(O)cc2)C(=O)N2CCCC[C@@H]2C(=O)N[C@@H](Cc2c[nH]c3ccccc23)C(=O)N[C@@H](Cc2ccc(O)cc2)C(=O)N[C@@H](CC(C)C)C(=O)N[C@H](C(=O)NCC(=O)NCC(=O)NCC(=O)N[C@@H](CCCCNC(=O)CCOCCOCCOCCOCCNC(=O)CCCCC2SCC3NC(=O)NC32)C(N)=O)CSCC(=O)N[C@@H](Cc2cc(F)c(F)c(F)c2)C(=O)N(C)[C@@H](Cc2ccccc2)C(=O)N1C (stereo partly shown) [Example 3626] ({CH2CO}-[Phe(3,4,5-F3)][NMeF][NMeNle][d(cisHyp)]DV[NMeF]Y[dPip]WYLCGGGK([PEG4-X30])-NH2; thioether N-13)
10 to 99 nM | CCCCCCCCCCC(=O)NCCCC[C@H](NC(=O)[C@H](CC(=O)O)NC(=O)CNC(=O)[C@@H]1CSCC(=O)N[C@@H](Cc2ccc(O)cc2)C(=O)N(C)[C@@H](C)C(=O)N[C@@H](CC(N)=O)C(=O)N2CCC[C@H]2C(=O)N[C@@H](CCN)C(=O)N[C@@H](CC(C)C)C(=O)N2C[C@H](O)C[C@H]2C(=O)N[C@@H](Cc2c[nH]c3ccccc23)C(=O)N[C@@H](CO)C(=O)N[C@@H](Cc2c[nH]c3ccccc23)C(=O)N(C)[C@@H](CCCC)C(=O)N(C)[C@@H](CCCC)C(=O)N[C@@H](CCCNC(=N)N)C(=O)N1)C(N)=O [Example 11005] ({CH2CO}-Y[NMeA]NP[Dab]L[Hyp]WSW[NMeNle][NMeNle]RCGDK(Undecanoyl)-NH2; thioether N-14)
